Results on 1 compound are retold here after patent EP4574147A1, “COMPOSITION FOR PREVENTING, AMELIORATING, OR TREATING CANCER COMPRISING STEPPOGENIN AS ACTIVE INGREDIENT” (Kyungpook National University Industry-Academic Cooperation …, priority 2022, dated 2024).

The data set has as its system Lewis lung carcinoma (LLC)-allografted tumor models. In words: Lewis lung carcinoma allograft tumor model with immunohistochemical analysis. It counts as in vivo, C57BL/6J mice. The following applies: 17-AAG 25 mg/kg, steppogenin 2 mg/kg, intraperitoneal (FIG. 6b). As for the experimental part:
Six-week-old adult male C57BL/6J mice (SLC, Japan) were used and housed in a specific pathogen-free facility with an individual ventilation system at Kyungpook National University.
To manufacture Lewis lung carcinoma (LLC)-allografted tumor models, LLC cell suspensions (5 × 10^5 cells in 200 µL of serum-free culture medium) were subcutaneously transplanted into the dorsal flank area of 6-week-old male C57BL/6J mice. After inoculating the LLC cells, the mice were administered 17-AAG (25 mg/kg) or steppogenin (2 mg/kg) via intraperitoneal injection at various time points. Next, tumor volumes were measured according to the following formula: V = 0.5 × A × B^2, where A and B represent the longest and shortest dimensions, respectively. Finally, the mice were anesthetized and tissues were collected for further analysis.
For immunohistochemical analysis, collected tumor or tissue samples were fixed in 4% paraformaldehyde and embedded in tissue-freezing medium (Leica, Wetzlar, Germany). Frozen blocks were cut into 10 µm sample sections, blocked with 3% BSA in PBST (0.3% Triton X-100 in PBS), and incubated overnight at 4 °C with appropriate primary antibodies. Primary antibodies were as follows: anti-CD34 (Boster Bio, CA, USA), anti-DLL4 (R&D Systems, MN, USA), anti-pimonidazole (Hypoxyprobe-1, HPI, MA, USA), anti-CD3 (Abcam), anti-CD4 (Invitrogen), and anti-CD8 (Invitrogen). After several washes, the samples were incubated with recommended fluorophore-tagged secondary antibodies for 1 hour at room temperature. Next, cell nuclei were stained using Antifade Mounting Medium containing DAPI (Vector Laboratories, Burlingame, CA). Immunofluorescence images were acquired using a Zeiss confocal microscope (Carl Zeiss, Germany). Next, pimonidazole hydrochloride (60 mg/kg; Hypoxyprobe-1, HPI) was injected intravenously through the tail vein of mice and anesthetized 90 minutes later. Finally, tumor tissues were collected for further analysis.
To determine whether steppogenin induces vascular normalization, T-cell infiltration in tumor tissues was examined.

Turning to `C=CCNC1=C2C[C@@H](C)C[C@H](OC)[C@H](O)[C@@H](C)/C=C(\C)[C@H](OC(N)=O)[C@@H](OC)/C=C\C=C(/C)C(=O)NC(=CC1=O)C2=O` [Compound 17-AAG, tanespimycin, reference compound], the “average body weights between the groups during the administration period” value is “no significant difference”.
